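The concentration for 50% growth inhibition is given as GI50. Definition used: TGI = concentration required for complete inhibition of growth.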
Legend:
Test in all cases: inhibition of tumour cell growth, NCI panel, 384-well format
[1] = tested on: 786-0 renal
[2] = tested on: A498 renal
[3] = tested on: A549 NSCLC
[4] = tested on: ACHN renal
[5] = tested on: BT-549 breast
[6] = tested on: CAKI-1 renal
[7] = tested on: CCRF-CEM leukemia
[8] = tested on: COLO 205 colon
[9] = tested on: DU-145 prostate
[10] = tested on: EKVX NSCLC
[11] = tested on: HCC-2998 colon
[12] = tested on: HCT-116 colon
[13] = tested on: HCT-15 colon
[14] = tested on: HL-60(TB) leukemia
[15] = tested on: HOP-62 NSCLC
[16] = tested on: HOP-92 NSCLC
[17] = tested on: HT29 colon
[18] = tested on: IGROV1 ovarian
[19] = tested on: K-562 leukemia
[20] = tested on: KM12 colon
[21] = tested on: LOX IMVI melanoma
[22] = tested on: M14 melanoma
[23] = tested on: MALME-3M melanoma
[24] = tested on: MCF7 breast
[25] = tested on: MDA-MB-231 breast
[26] = tested on: MDA-MB-435 melanoma
[27] = tested on: MDA-MB-468 breast
[28] = tested on: MOLT-4 leukemia
[29] = tested on: NCI-H226 lung
[30] = tested on: NCI-H23 lung
[31] = tested on: NCI-H322M lung
[32] = tested on: NCI-H460 NSCLC
[33] = tested on: NCI-H522 lung
[34] = tested on: NCI/ADR-RES ovarian
[35] = tested on: OVCAR-3 ovarian
[36] = tested on: OVCAR-4 ovarian
[37] = tested on: OVCAR-5 ovarian
[38] = tested on: OVCAR-8 ovarian
[39] = tested on: PC-3 prostate
[40] = tested on: RPMI-8226 leukemia
[41] = tested on: RXF 393 renal
[42] = tested on: SF-268 CNS
[43] = tested on: SF-295 CNS
[44] = tested on: SF-539 CNS
[45] = tested on: SK-MEL-2 melanoma
[46] = tested on: SK-MEL-28 melanoma
[47] = tested on: SK-MEL-5 melanoma
[48] = tested on: SK-OV-3 ovarian
[49] = tested on: SN12C renal
[50] = tested on: SNB-19 CNS
[51] = tested on: SNB-75 CNS
[52] = tested on: SR leukemia
[53] = tested on: SW-620 colon
[54] = tested on: T-47D breast
[55] = tested on: TK-10 renal
[56] = tested on: U251 glioblastoma
[57] = tested on: UACC-257 melanoma
[58] = tested on: UACC-62 melanoma
[59] = tested on: UO-31 renal

`CCc1cccc(CC)c1NC(=O)c1ccn2c1CCc1cnc(Nc3ccc(N4CCN(C)CC4)cc3OC)nc1-2` showed a GI50 [1] of 39.1 nM, a TGI [1] of 1690 nM and a GI50 [2] of less than 21.9 nM. The TGI [2] was 1970 nM, the GI50 [3] was less than 10 nM and the TGI [3] was 2480 nM. The GI50 [4] was 37.9 nM, the TGI [4] was 2210 nM and the GI50 [5] was 48.9 nM. The TGI [5] was 1450 nM, the GI50 [6] was 242 nM and the TGI [6] was 2200 nM. The GI50 [7] was less than 10 nM, the TGI [7] was 11.1 nM and the GI50 [8] was less than 10 nM. For the same compound, the TGI [8] was 1250 nM, the GI50 [9] was 35.8 nM and the TGI [9] was 2320 nM. It also gave a GI50 [10] of 283 nM, a TGI [10] of 2280 nM and a GI50 [11] of 1380 nM. It also gave a TGI [11] of 2710 nM, a GI50 [12] of less than 10 nM and a TGI [12] of 1770 nM. It also gave a GI50 [13] of less than 10 nM, a TGI [13] of 1350 nM and a GI50 [14] of 13.6 nM. The TGI [14] was 36.4 nM, the GI50 [15] was less than 19.6 nM and the TGI [15] was 1760 nM. For the same compound, the GI50 [16] was 758 nM, the TGI [16] was 2120 nM and the GI50 [17] was 56.2 nM. The TGI [17] was 1530 nM, the GI50 [18] was 1220 nM and the TGI [18] was 2480 nM. The GI50 [19] was 82.4 nM, the TGI [19] was 1400 nM and the GI50 [20] was 1090 nM. It also gave a TGI [20] of 2320 nM, a GI50 [21] of 13.4 nM and a TGI [21] of 1360 nM. For the same compound, the GI50 [22] was 200 nM, the TGI [22] was 2150 nM and the GI50 [23] was 1250 nM. It also gave a TGI [23] of 2510 nM, a GI50 [24] of less than 10 nM and a TGI [24] of 2160 nM. It also gave a GI50 [25] of 1100 nM, a TGI [25] of 2320 nM and a GI50 [26] of 1070 nM. For the same compound, the TGI [26] was 2580 nM, the GI50 [27] was 36.2 nM and the TGI [27] was 305 nM. It also gave a GI50 [28] of less than 10 nM, a GI50 [29] of 315 nM and a TGI [29] of 2430 nM. For the same compound, the GI50 [30] was 56.2 nM, the TGI [30] was 2680 nM and the GI50 [31] was 1480 nM. For the same compound, the TGI [31] was 3080 nM, the GI50 [32] was less than 10 nM and the TGI [32] was 1070 nM. The GI50 [33] was 88.9 nM, the TGI [33] was 1720 nM and the GI50 [34] was 27 nM. The TGI [34] was 86.2 nM, the GI50 [35] was 110 nM and the TGI [35] was 2000 nM. It also gave a GI50 [36] of 1490 nM, a TGI [36] of 2910 nM and a GI50 [37] of 110 nM. The TGI [37] was 1970 nM, the GI50 [38] was 19.8 nM and the TGI [38] was 1140 nM. For the same compound, the GI50 [39] was 1140 nM, the TGI [39] was 2400 nM and the GI50 [40] was 17.8 nM. It also gave a TGI [40] of 57.5 nM, a GI50 [41] of less than 19.8 nM and a TGI [41] of 1750 nM. The GI50 [42] was 1290 nM, the TGI [42] was 2770 nM and the GI50 [43] was 36.6 nM. It also gave a TGI [43] of 1820 nM, a GI50 [44] of less than 19.4 nM and a TGI [44] of 1450 nM. For the same compound, the GI50 [45] was 196 nM, the TGI [45] was 1950 nM and the GI50 [46] was 1210 nM. It also gave a TGI [46] of 2460 nM, a GI50 [47] of 61.5 nM and a TGI [47] of 2020 nM. It also gave a GI50 [48] of 1260 nM, a TGI [48] of 2540 nM and a GI50 [49] of 997 nM. For the same compound, the TGI [49] was 2160 nM, the GI50 [50] was 1210 nM and the TGI [50] was 2580 nM. It also gave a GI50 [51] of 1370 nM, a TGI [51] of 2690 nM and a GI50 [52] of less than 10 nM. For the same compound, the GI50 [53] was less than 10 nM, the GI50 [54] was 1100 nM and the TGI [54] was 2320 nM. It also gave a GI50 [55] of 312 nM, a TGI [55] of 2370 nM and a GI50 [56] of less than 11.5 nM. It also gave a TGI [56] of 1480 nM, a GI50 [57] of 293 nM and a TGI [57] of 894 nM. For the same compound, the GI50 [58] was 605 nM, the TGI [58] was 2180 nM and the GI50 [59] was 75 nM. It also gave a TGI [59] of 1890 nM.
